In patent publication US20220348966A1, “SYSTEM AND METHOD FOR INCREASED ALCOHOL TOLERANCE AND PRODUCTION IN YEAST” (The Trustees of Princeton University, priority 2019, published 2022):
Where two headings read alike, the source gives them in different places.

Key:
gln3Δ strain [1] = assay type: cell-based, S. cerevisiae; settings: for tolerance compared to wild type strain: liquid medium
Excerpt: (§1) The six hypertolerant strains were examined in liquid medium containing heavy alcohols. In this example, the liquid medium contained 1.5% or 1.6% isobutanol, or 8% ethanol.
Tolerance of the gln3Δ strain to other alcohols was explored by measuring its growth in liquid medium containing methanol, 1-propanol, 1-butanol, 2-butanol, tert-butanol, 1-pentanol, 2-methyl-1-butanol, isopentanol, or 1-hexanol.

gnd1Δ strain = assay type: cell-based, S. cerevisiae; settings: for sensitivity / cell growth in presence of alcohol compared to wild type: FIG. 5, various alcohols
Method: (§2) Growth of 19 hypersensitive strains was measured in liquid SC medium containing 0.6%, 1.0%, or 1.4% isobutanol, or 8% ethanol. These growth experiments were initiated at an OD600 of 0.1, unlike in previous screens, which started with much smaller inoculums (from a 96-pin replicator).
(§3) The sensitivity of gnd1Δ and zwf1Δ strains to other alcohols including methanol, 1-propanol, 1-butanol, 2-butanol, tert-butanol, 1-pentanol, 2-methyl-1-butanol, isopentanol, and 1-hexanol was explored.

zwf1Δ strain = assay type: cell-based, S. cerevisiae; settings: for sensitivity / cell growth in presence of alcohol compared to wild type: FIG. 5, various alcohols
Method: as §2, §3

nha1Δ strain = settings: 8% ethanol
Method: as §2, §3

BY4741 wild type strain = settings: for cell growth (OD600): 24 h
Method: The Tolerance Factor (TF) is defined as the ratio of the OD600 of cells grown with the heavy alcohol in the medium after 24 h, divided by the OD600 of cells grown in the absence of the heavy alcohol for the same amount of time.
A first example is for the identification of the LC50 (lethal concentration for 50% of cells) of isobutanol for the BY4741 wild type strain of S. cerevisiae, the strain from which a gene deletion library was developed (Giaever et al., 2002; Winzeler et al., 1999). […] The cell growth of BY4741 in synthetic complete (SC) liquid medium containing concentrations of isobutanol ranging from 0.0% to 1.8% (v/v) was monitored by measuring the optical density at 600 nm (OD600) after 24-h cultivation.
(§4) Utilizing the LC50 results, one can screen a gene deletion library (here, the BY4741 library [Giaever et al., 2002; Winzeler et al., 1999]) for changes in cell growth in liquid SC medium containing the heavy alcohol at an amount that is 0.1% or 0.2% (v/v) less than the LC50. Here, 1.4% (v/v) isobutanol was used. […] To quantify these phenotypes, a tolerance factor (TF) was defined as the ratio of the OD600 of cells grown with isobutanol in the medium after 24 h, divided by the OD600 of cells grown in the absence of isobutanol for the same amount of time. Thus, one can classify deletion strains as having increased sensitivity or tolerance to isobutanol based on the comparison of their TF values to that of the wild type strain in, e.g., 1.4% isobutanol measured during the screen. […] To assess the specificity of changes in tolerance to isobutanol, the growth of these selected strains in media containing ethanol can also be measured: 8% for sensitive strains or 9% for tolerant strains.
For most screens and analyses of alcohol tolerance, wild type and deletion strains can be cultured in synthetic complete (SC) medium made inhouse (see Table 1) at 30° C., and 2% glucose. Strains overexpressing PPP genes can be cultured in SC medium lacking uracil (SC-Ura) made inhouse.

gcn3Δ strain = assay type: cell-based, S. cerevisiae
Method: as §4, §1

yeast = settings: cited from earlier work
ydr391cΔ strain = assay type: cell-based, S. cerevisiae; settings: FIG. 6
Excerpt: as §1

vps55Δ strain = assay type: cell-based, S. cerevisiae; settings: FIG. 6
Excerpt: as §1

gnp1Δ strain = assay type: cell-based, S. cerevisiae; settings: FIG. 6
Excerpt: as §1

avt3Δ strain = assay type: cell-based, S. cerevisiae; settings: FIG. 6
Excerpt: as §1

vps34Δ strain = experiment: Growth of hypersensitive strains in liquid SC medium; assay type: cell-based, S. cerevisiae; settings: 0.6% isobutanol, initial OD600 0.1
BY4741 = experiment: Serial dilutions spotted onto SC agar plates; assay type: cell-based, S. cerevisiae; settings: SC agar containing 2.4% isobutanol
Excerpt: To evaluate isobutanol growth inhibition on solid medium, serial dilutions of BY4741 were spotted onto SC agar plates containing 0.0% to 3.0% isobutanol. […] The higher LC50 determined from agar plates may be the result of higher cell tolerance to isobutanol in solid media; however, it could also reflect the difficulty in accurately preparing solid media with specific isobutanol concentrations due to isobutanol evaporation during the pouring of hot agar.

gcn4Δ strain = experiment: Gene deletion library screen, tolerance factor in liquid SC medium; assay type: cell-based, S. cerevisiae; settings: 1.4% isobutanol
Excerpt: (§5) Here, 1.4% (v/v) isobutanol was used.

gln3Δ strain [2] = experiment: Growth on SC agar medium; assay type: cell-based, S. cerevisiae; settings: 2.7% isobutanol
Excerpt: The gln3Δ strain can grow on SC agar medium containing 2.7% isobutanol.

pep12Δ strain = experiment: Growth of hypersensitive strains in liquid SC medium; assay type: cell-based, S. cerevisiae; settings: 0.6% isobutanol, initial OD600 0.1
trp5Δ strain = experiment: Gene deletion library screen for isobutanol sensitivity; assay type: cell-based, S. cerevisiae; settings: second screen, 0.6% and 1.2% isobutanol
Excerpt: as §5
(§6) Out of the 164 sensitive strains, the 46 strains that continue to display increased sensitivity to isobutanol at lower concentrations (TF <0.5 in 0.6% isobutanol or TF <0.1 in 1.2% isobutanol) can be categorized as hypersensitive. These strains are highlighted in gray in FIGS. 2A-2C. Among the 36 strains with increased tolerance, 6 continue to display increased tolerance (TF >0.4) in 1.5% isobutanol, which we categorize as hypertolerant (FIG. 3).
(§7) Next, a Gene Ontology (GO) enrichment analysis of genes deleted in the 164 most sensitive and 36 most tolerant strains can be performed. […] In fact, five strains harboring deletions in the TRP gene family, encoding enzymes in tryptophan biosynthesis, show increased isobutanol sensitivity (with trp2Δ, trp3Δ, and trp5Δ being hypersensitive strains). One can examine the increased sensitivity to isobutanol caused by TRP1 deletion because it is an auxotrophic marker in commonly used strains, such as CEN.PK- and SEY6210-derived strains. […] Furthermore, after repairing the TRP1 allele in CEN.PK2-1C and SEY6210, wild-type (BY4741) levels of isobutanol tolerance are recovered.

trp3Δ strain = experiment: as above; assay type: cell-based, S. cerevisiae; settings: second screen, 0.6% and 1.2% isobutanol
Excerpt: as §5, §6, §7

trp2Δ strain = experiment: as above; assay type: cell-based, S. cerevisiae; settings: second screen, 0.6% and 1.2% isobutanol
Excerpt: as §5, §6, §7

[3] = 0.6% isobutanol, initial OD600 0.1

CCC(C)CO (stereo not shown) [2-methyl-1-butanol]
OD600 relative to wild type strain (gln3Δ strain [1]; 0.55% 2-methyl-1-butanol, FIG. 7): 11.4 fold | tolerance compared to wild type strain (gln3Δ strain [1]; FIG. 7): dramatically enhanced tolerance

CCO [Ethanol, ethanol]
sensitivity compared to wild type strain (gnd1Δ strain; 8% ethanol): no more sensitive | sensitivity / cell growth in presence of alcohol compared to wild type (gnd1Δ strain): neither strain demonstrates significantly increased sensitivity | sensitivity compared to wild type strain (zwf1Δ strain; 8% ethanol): no more sensitive | sensitivity / cell growth in presence of alcohol compared to wild type (zwf1Δ strain): neither strain demonstrates significantly increased sensitivity | sensitivity compared to wild type strain (nha1Δ strain): no more sensitive | Tolerance Factor (BY4741 wild type strain; 8.0% ethanol): 0.31 | sensitivity compared to wild type strain (gln3Δ strain [1]; 8% ethanol, FIG. 6): at least as sensitive | tolerance compared to wild type strain (gln3Δ strain [1]; FIG. 7): does not statistically increase tolerance | sensitivity compared to wild type strain (gcn3Δ strain; 8% ethanol, FIG. 6): at least as sensitive | ethanol concentration endured (yeast; S. cerevisiae): ≤ 18 % (v/v) | sensitivity compared to wild type strain (ydr391cΔ strain; 8% ethanol): at least as sensitive | sensitivity compared to wild type strain (vps55Δ strain; 8% ethanol): at least as sensitive | sensitivity compared to wild type strain (gnp1Δ strain; 8% ethanol): at least as sensitive | sensitivity compared to wild type strain (avt3Δ strain; 8% ethanol): at least as sensitive

CCCCO [Example 1-butanol, 1-butanol]
tolerance compared to wild type strain (gln3Δ strain [1]; FIG. 7): does not statistically increase tolerance

CCCCCCO [Example 1-hexanol, 1-hexanol]
tolerance compared to wild type strain (gln3Δ strain [1]; FIG. 7): does not statistically increase tolerance

CCCCCO [Example 1-pentanol, 1-pentanol]
tolerance compared to wild type strain (gln3Δ strain [1]; FIG. 7): does not statistically increase tolerance

CCCO [Example 1-propanol, 1-propanol]
sensitivity / cell growth in presence of alcohol compared to wild type (gnd1Δ strain): neither strain demonstrates significantly increased sensitivity | sensitivity / cell growth in presence of alcohol compared to wild type (zwf1Δ strain): neither strain demonstrates significantly increased sensitivity | tolerance compared to wild type strain (gln3Δ strain [1]; FIG. 7): does not statistically increase tolerance

CCC(C)O (stereo not shown) [Example 2-butanol, 2-butanol]
tolerance compared to wild type strain (gln3Δ strain [1]; FIG. 7): smaller, but statistically significant, increase in tolerance

CC(C)CO [Isobutanol, 2-methyl-1-propanol]
Tolerance Factor (gnd1Δ strain; [3]): less than 0.3 | Tolerance Factor (zwf1Δ strain; [3]): less than 0.3 | Tolerance Factor (vps34Δ strain): less than 0.3 | Tolerance Factor (BY4741 wild type strain; 0.6% isobutanol): 0.92 | Tolerance Factor (BY4741 wild type strain; 1.2% isobutanol): 0.72 | Tolerance Factor (BY4741 wild type strain; 1.4% isobutanol): 0.38 | Tolerance Factor (BY4741 wild type strain; 1.5% isobutanol): 0.19 | Tolerance Factor (BY4741 wild type strain; 1.6% isobutanol): 0.11 | LC50 (lethal concentration for 50% of cells) (BY4741 wild type strain; SC liquid medium, OD600 after 24-h cultivation): ~1.5 % (v/v) | cell growth (OD600) (BY4741 wild type strain; isobutanol 1.4% and 1.5%): moderate inhibition | cell growth (OD600) (BY4741 wild type strain; isobutanol concentrations above 1.6%): significantly inhibited | cell growth (OD600) (BY4741 wild type strain; isobutanol concentrations below 1.3%): marginally affected | growth compared to wild type (gln3Δ strain [1]; 1.5% isobutanol, FIG. 6): grow better than the wild type | tolerance compared to wild type (gln3Δ strain [1]; 1.6% isobutanol, FIG. 6): enhanced tolerance | increase in isobutanol tolerance compared to wild type (gln3Δ strain [1]; FIG. 7): 4.04 fold | tolerance compared to wild type strain (gln3Δ strain [1]; FIG. 7): dramatically enhanced tolerance | cell growth on agar plates (BY4741): still observable but noticeably inhibited | Tolerance Factor (gcn4Δ strain): 0.86 | Tolerance Factor (gcn3Δ strain; 1.4% isobutanol): 0.98 | growth compared to wild type (gcn3Δ strain; 1.5% isobutanol, FIG. 6): grow better than the wild type | tolerance compared to wild type (gcn3Δ strain; 1.6% isobutanol, FIG. 6): enhanced tolerance | growth on SC agar medium (gln3Δ strain [2]): can grow | Tolerance Factor (pep12Δ strain): less than 0.3 | toxicity for yeast relative to ethanol (yeast): 10 times | isobutanol sensitivity class (trp5Δ strain): hypersensitive (TF <0.5 in 0.6% isobutanol or TF <0.1 in 1.2% isobutanol) | isobutanol sensitivity class (trp3Δ strain): hypersensitive (TF <0.5 in 0.6% isobutanol or TF <0.1 in 1.2% isobutanol) | isobutanol sensitivity class (trp2Δ strain): hypersensitive (TF <0.5 in 0.6% isobutanol or TF <0.1 in 1.2% isobutanol) | growth compared to wild type (ydr391cΔ strain; 1.5% isobutanol): grow better than the wild type | growth compared to wild type (vps55Δ strain; 1.5% isobutanol): grow better than the wild type | tolerance compared to wild type (vps55Δ strain; 1.6% isobutanol): enhanced tolerance | growth compared to wild type (gnp1Δ strain; 1.5% isobutanol): grow better than the wild type | tolerance compared to wild type (gnp1Δ strain; 1.6% isobutanol): enhanced tolerance | growth compared to wild type (avt3Δ strain; 1.5% isobutanol): grow better than the wild type

CC(C)CCO [isopentanol, 3-methyl-1-butanol]
tolerance compared to wild type strain (gln3Δ strain [1]; FIG. 7): dramatically enhanced tolerance

CO [methanol]
sensitivity / cell growth in presence of alcohol compared to wild type (gnd1Δ strain): neither strain demonstrates significantly increased sensitivity | sensitivity / cell growth in presence of alcohol compared to wild type (zwf1Δ strain): neither strain demonstrates significantly increased sensitivity | tolerance compared to wild type strain (gln3Δ strain [1]; FIG. 7): does not statistically increase tolerance

CC(C)(C)O [tert-butanol]
tolerance compared to wild type strain (gln3Δ strain [1]; FIG. 7): dramatically enhanced tolerance
